The text below walks through data of PMC8198214, “Synthesis and Biological Evaluation of Spirocyclic Chromane Derivatives as a Potential Treatment of Prostate Cancer” (Molecules, 2021).

The subject of one experiment is 22Rv1 cells. Description: 22Rv1 cell viability (CCK-8) antiproliferation assay. The class given is cell-based, human. To be noted: 22Rv1 cell antiproliferation. The method, then:
The 22Rv1 prostate cancer cell line in this study was purchased from KeyGEN Biotech Co. Ltd. (Nanjing, Jiangsu, China ). The cells were cultured in RPMI 1640 medium and maintained at 37 °C in a 5% CO2 incubator. For the cell viability assay, the cell slurry was diluted to required volume at a density of 80,000 cells/mL. Then, 100 μL the cell slurry was seeded in each well of the 96-well plate. The cells were incubated for 72 h at 37 °C, 5% CO2 under humidified condition. The reference and test compounds solution (200×) were prepared with DMSO and were diluted from 200× to 1× with culture medium (RPMI 1640 medium without phenol red and containing 10% fetal calf serum, penicillin (100U/mL), streptomycin (100 μg/mL) and 0.1 nM DHT). The previous culture medium was removed and 200 μL/well of the compound solution (1×) was added to assay plate (final conc: 1×). Then the cells were incubated at 37 °C, 5% CO2 under humidified conditions. 5 Days later, the CCK-8 assay reagent was equilibrated at room temperature for 30 min prior to use. CCK-8 was mixed with fresh medium at a ratio of 1:10 and 100 μL of the diluted CCK8 reagent was added to each well and the plates were incubated for 4.5 h at 37 °C. Finally, absorbance value (OD value) was read on plate reader. GraphPad Prism v5.0 software was used to process data for IC50.
As for `C[C@H](N(Cc1ccc2c(c1)OC(F)(F)O2)C(=O)CN1C(=O)O[C@@]2(CCc3cc(-c4cnn(C)c4)ccc32)C1=O)C(F)(F)F` [B1, N-((2,2-Difluorobenzo[d][1,3]dioxol-5-yl)methyl)-2-((R)-5-(1-methyl-1H-pyrazol-4-yl)-2′,4′-dioxo-2,3-dihydrospiro[indene-1,5′-oxazolidin]-3′-yl)-N-((S)-1,1,1-trifluoropropan-2-yl)acetamide], the “fold less potency than A-485” value stood at 10 fold.
Take `CNC(=O)Cn1cc(-c2ccc3c(c2)CCC32OC(=O)N(CC(=O)N(Cc3ccc(F)cc3)[C@@H]3CCc4ncccc43)C2=O)cn1` (stereo partly drawn) [B11, N-((R)-6,7-Dihydro-5H-cyclopenta[b]pyridin-5-yl)-N-(4-fluorobenzyl)-2-(5-(1-(2-(methylamino)-2-oxoethyl)-1H-pyrazol-4-yl)-2′,4′-dioxo-2,3-dihydrospiro[indene-1,5′-oxazolidin]-3′-yl)acetamide]: the “fold increased potency versus B10” value was 5 fold.
The same measure, in the same setting: in the case of `CNC(=O)Cn1cc(-c2ccc3c(c2)CCC32OC(=O)N(CC(=O)N(Cc3ccc(F)cn3)[C@@H]3CCc4ccccc43)C2=O)cn1` (stereo partly drawn) [B12, N-((R)-2,3-Dihydro-1H-inden-1-yl)-N-((5-fluoropyridin-2-yl)methyl)-2-(5-(1-(2-(methylamino)-2-oxoethyl)-1H-pyrazol-4-yl)-2′,4′-dioxo-2,3-dihydrospiro[indene-1,5′-oxazolidin]-3′-yl)acetamide] it was 5 fold.

Staying with this experiment, now noted: Homo sapiens; Table 2; 22Rv1 cells; means of two independent experiments (n = 2).
The IC50 is the concentration that inhibits the measured activity by half. Low values mean greater potency, high ones weaker potency. `CNC(=O)Cn1cc(-c2ccc3c(c2)CCC32OC(=O)N(CC(=O)N(Cc3ccc(F)cc3)[C@H]3CCc4cc(F)ccc43)C2=O)cn1` (stereo partly drawn) [B9, N-((S)-5-Fluoro-2,3-dihydro-1H-inden-1-yl)-N-(4-fluorobenzyl)-2-(5-(1-(2-(methylamino)-2-oxoethyl)-1H-pyrazol-4-yl)-2′,4′-dioxo-2,3-dihydrospiro[indene-1,5′-oxazolidin]-3′-yl)acetamide] displayed an IC50 of 334 nM.
For `CC(C)(O)Cn1cc(-c2ccc3c(c2)CCC32OC(=O)N(CC(=O)N(Cc3ccc(F)cc3)[C@H]3CCc4ccccc43)C2=O)cn1` (stereo partly drawn) [B6, N-((S)-2,3-Dihydro-1H-inden-1-yl)-N-(4-fluorobenzyl)-2-(5-(1-(2-hydroxy-2-methylpropyl)-1H-pyrazol-4-yl)-2′,4′-dioxo-2,3-dihydrospiro[indene-1,5′-oxazolidin]-3′-yl)acetamide], 431 nM corresponded to half-maximal inhibition (IC50).
Still for that read-out and setting: in the case of `C[C@H](N(Cc1ccc2c(c1)OC(F)(F)O2)C(=O)CN1C(=O)O[C@@]2(CCc3cc(-c4cnn(C)c4)ccc32)C1=O)C(F)(F)F` [B1, N-((2,2-Difluorobenzo[d][1,3]dioxol-5-yl)methyl)-2-((R)-5-(1-methyl-1H-pyrazol-4-yl)-2′,4′-dioxo-2,3-dihydrospiro[indene-1,5′-oxazolidin]-3′-yl)-N-((S)-1,1,1-trifluoropropan-2-yl)acetamide] it was 1370 nM; in that of `CN1C2CCC1CC(N(Cc1ccc(F)cc1)C(=O)CN1C(=O)O[C@@]3(CCc4cc(-c5cnn(C)c5)ccc43)C1=O)C2` (stereo partly drawn) [B2, N-(4-Fluorobenzyl)-2-((R)-5-(1-methyl-1H-pyrazol-4-yl)-2′,4′-dioxo-2,3-dihydrospiro[indene-1,5′-oxazolidin]-3′-yl)-N-(8-methyl-8-azabicyclo[3.2.1]octan-3-yl)acetamide], 37600 nM; in that of `Cn1cc(-c2ccc3c(c2)CCC32OC(=O)N(CC(=O)N3CCn4c(nnc4C(F)(F)F)C3)C2=O)cn1` (centres unmarked) [B18, 5-(1-Methyl-1H-pyrazol-4-yl)-3′-(2-oxo-2-(3-(trifluoromethyl)-5,6-dihydro-[1,2,4]triazolo[4,3-a]pyrazin-7(8H)-yl)ethyl)-2,3-dihydrospiro[indene-1,5′-oxazolidine]-2′,4′-dione], above 25000 nM.
Still for that read-out and setting: under `CNC(=O)Cn1cc(-c2ccc3c(c2)CCC32OC(=O)N(CC(=O)N(Cc3ccc(F)cc3)[C@H]3CCCc4ccccc43)C2=O)cn1` (stereo partly drawn) [B15, N-(4-fluorobenzyl)-2-(5-(1-(2-(methylamino)-2-oxoethyl)-1H-pyrazol-4-yl)-2′,4′-dioxo-2,3-dihydrospiro[indene-1,5′-oxazolidin]-3′-yl)-N-((S)-1,2,3,4-tetrahydronaphthalen-1-yl)acetamide] stands 450 nM; under `CNC(=O)Nc1ccc2c(c1)CCC21OC(=O)N(CC(=O)N2CCCc3ccc(C(F)F)cc32)C1=O` (centres unmarked) [B17, 1-(3′-(2-(7-(Difluoromethyl)-3,4-dihydroquinolin-1(2H)-yl)-2-oxoethyl)-2′,4′-dioxo-2,3-dihydrospiro[indene-1,5′-oxazolidin]-5-yl)-3-methylurea], 8700 nM; under `CNC(=O)Nc1ccc2c(c1)CCC21OC(=O)N(CC(=O)N(Cc2ccc(F)cc2)[C@H]2CCc3ccccc32)C1=O` (stereo partly drawn) [B5, N-((S)-2,3-Dihydro-1H-inden-1-yl)-N-(4-fluorobenzyl)-2-(5-(3-methylureido)-2′,4′-dioxo-2,3-dihydrospiro[indene-1,5′-oxazolidin]-3′-yl)acetamide], 406 nM.
`CNC(=O)Cn1cc(-c2ccc3c(c2)CCC32OC(=O)N(CC(=O)N(Cc3ccc(F)cc3)[C@@H]3CCc4ccccc43)C2=O)cn1` (stereo partly drawn) [B10, N-((R)-2,3-Dihydro-1H-inden-1-yl)-N-(4-fluorobenzyl)-2-(5-(1-(2-(methylamino)-2-oxoethyl)-1H-pyrazol-4-yl)-2′,4′-dioxo-2,3-dihydrospiro[indene-1,5′-oxazolidin]-3′-yl)acetamide] registered an IC50 of 1660 nM.
Regarding `CNC(=O)Cn1cc(-c2ccc3c(c2)CCC32OC(=O)N(CC(=O)N(Cc3ccc(F)cc3)[C@@H]3CCc4ncccc43)C2=O)cn1` (stereo partly drawn) [B11, N-((R)-6,7-Dihydro-5H-cyclopenta[b]pyridin-5-yl)-N-(4-fluorobenzyl)-2-(5-(1-(2-(methylamino)-2-oxoethyl)-1H-pyrazol-4-yl)-2′,4′-dioxo-2,3-dihydrospiro[indene-1,5′-oxazolidin]-3′-yl)acetamide], the IC50 stood at 340 nM. Against the preceding molecule, the IC50 is about 4.9-fold lower.
Molecule `Cn1cc(-c2ccc3c(c2)CCC32OC(=O)N(CC(=O)N(Cc3ccc(F)cc3)[C@@H]3CN4CCC3CC4)C2=O)cn1` (stereo partly drawn) [B3, N-(4-Fluorobenzyl)-2-(5-(1-methyl-1H-pyrazol-4-yl)-2′,4′-dioxo-2,3-dihydrospiro [indene-1,5′-oxazolidin]-3′-yl)-N-((S)-quinuclidin-3-yl)acetamide] had an IC50 above 25000 nM.
On the same count and under the same terms, in the case of `CNC(=O)Cn1cc(-c2ccc3c(c2)CCC32OC(=O)N(CC(=O)N(Cc3ccc(F)cn3)[C@@H]3CCc4ccccc43)C2=O)cn1` (stereo partly drawn) [B12, N-((R)-2,3-Dihydro-1H-inden-1-yl)-N-((5-fluoropyridin-2-yl)methyl)-2-(5-(1-(2-(methylamino)-2-oxoethyl)-1H-pyrazol-4-yl)-2′,4′-dioxo-2,3-dihydrospiro[indene-1,5′-oxazolidin]-3′-yl)acetamide] it was 265 nM; in that of `CNC(=O)Cn1cc(-c2ccc3c(c2)CCC32OC(=O)N(CC(=O)N(Cc3ccc(F)cn3)[C@@H]3CCc4cccnc43)C2=O)cn1` (stereo partly drawn) [B13, N-((R)-6,7-Dihydro-5H-cyclopenta[b]pyridin-7-yl)-N-((5-fluoropyridin-2-yl)methyl)-2-(5-(1-(2-(methylamino)-2-oxoethyl)-1H-pyrazol-4-yl)-2′,4′-dioxo-2,3-dihydrospiro[indene-1,5′-oxazolidin]-3′-yl)acetamide], 3470 nM.
`CNC(=O)Cn1cc(-c2ccc3c(c2)CCC32OC(=O)N(CC(=O)N(Cc3ccc(F)cc3)[C@H]3CCc4ccccc43)C2=O)cn1` (stereo partly drawn) [B7, N-((S)-2,3-Dihydro-1H-inden-1-yl)-N-(4-fluorobenzyl)-2-(5-(1-(2-(methylamino)-2-oxoethyl)-1H-pyrazol-4-yl)-2′,4′-dioxo-2,3-dihydrospiro[indene-1,5′-oxazolidin]-3′-yl)acetamide] registered a 50% inhibitory concentration (IC50) of 270 nM.
Regarding `Cn1cc(-c2ccc3c(c2)CCC32OC(=O)N(CC(=O)N(Cc3ccc(F)cc3)[C@H]3CCc4ccccc43)C2=O)cn1` (stereo partly drawn) [B4, N-((S)-2,3-Dihydro-1H-inden-1-yl)-N-(4-fluorobenzyl)-2-(5-(1-methyl-1H-pyrazol-4-yl)-2′,4′-dioxo-2,3-dihydrospiro[indene-1,5′-oxazolidin]-3′-yl)acetamide], the IC50 came to 252 nM.

Still in this experiment, the particulars now being: Table 1; 22Rv1 cells; means of two independent experiments (n = 2).
Take “N-(4-Fluorobenzyl)-2-(5-(1-(2-(methylamino)-2-oxoethyl)-1H-pyrazol-4-yl)-2′,5′-dioxo-2,3-dihydrospiro[indene-1,3′-pyrrolidin]-1′-yl)-N-((S)-1,1,1-trifluoropropan-2-yl)acetamide [A7]”: the IC50 worked out at 1800 nM. In other words, the single-digit micromolar range.
“N-(4-Fluorobenzyl)-2-(2-methyl-2′,4′-dioxo-2,4,8,9-tetrahydrospiro[cyclopenta [6,7]chromeno [3,4-c]pyrazole-7,5′-oxazolidin]-3′-yl)-N-((S)-1,1,1-trifluoropropan-2-yl)acetamide [A4]” came in with an IC50 above 100000 nM.
Still for that read-out and setting: under “N-(4-Fluorobenzyl)-2-(5-(3-methylureido)-2′,5′-dioxo-2,3-dihydrospiro[indene-1,3′-pyrrolidin]-1′-yl)-N-((S)-1,1,1-trifluoropropan-2-yl)acetamide [A8]” stands 6410 nM; under “N-(4-Fluorobenzyl)-2-(3-(1-methyl-1H-pyrazol-4-yl)-2′,4′-dioxo-5,6-dihydrospiro [cyclopenta[c]pyridine-7,5′-oxazolidin]-3′-yl)-N-((S)-1,1,1-trifluoropropan-2-yl)acetamide [A6]”, 27000 nM.
The same measure, in the same setting: under “N-(4-Fluorobenzyl)-2-(3-(1-(2-(methylamino)-2-oxoethyl)-1H-pyrazol-4-yl)-2′,4′-dioxospiro[fluorene-9,5′-oxazolidin]-3′-yl)-N-((S)-1,1,1-trifluoropropan-2-yl)acetamide [A1]” stands above 100000 nM; under “N-(4-Fluorobenzyl)-2-(5′-(3-methylureido)-2′′,4′′-dioxo-2′H-dispiro[cyclopropane-1,3′-indene-1′,5′′-oxazolidin]-3′′-yl)-N-((S)-1,1,1-trifluoropropan-2-yl)acetamide [A2]”, 351 nM.
The same measure, in the same setting: under “2-(5′-(3-Cyclopropylureido)-2′′,4′′-dioxo-2′H-dispiro[cyclopropane-1,3′-indene-1′,5′′-oxazolidin]-3′′-yl)-N-(4-fluorobenzyl)-N-((S)-1,1,1-trifluoropropan-2-yl)acetamide [A3]” stands 798 nM.

Still in this experiment, the particulars now being: Table 2; 22Rv1 cells; means of two independent experiments (n = 2).
As for “N-(4-Fluorobenzyl)-N-((S)-1-methyl-4,5,6,7-tetrahydro-1H-indazol-4-yl)-2-(5-(1-(2-(methylamino)-2-oxoethyl)-1H-pyrazol-4-yl)-2′,4′-dioxo-2,3-dihydrospiro [indene-1,5′-oxazolidin]-3′-yl)acetamide [B14]”, the IC50 came out at 1090 nM.
